Source: paper PMC8835475, “Salviolone from Salvia miltiorrhiza Roots Impairs Cell Cycle Progression, Colony Formation, and Metalloproteinase-2 Activity in A375 Melanoma Cells: Involvement of P21(Cip1/Waf1) Expression and STAT3 Phosphorylation” (International Journal of Molecular Sciences, 2022)

Experiments:
Type in all cases: cell-based, human
[1] = system: Tyr705-STAT3 phosphorylation; test: Immunoblot of p-Tyr705-STAT3 in A375 cells; conditions: A375, 20 µM; for STAT3 activity (tyrosine and serine phosphorylation): 48 h; for Tyr705-STAT3 phosphorylation: 72 h, vs untreated cells
Procedure: (§1) A375 cells were seeded in 6 cm Petri dishes (190 300 cell/dish) and treated with different compounds at 10 or 20 μM. After 48- or 72-h treatment, the cells were scraped using warm 1× sample buffer (2% SDS, 10% glycerol, 50 mM Tris-HCl, 1.75% β-mercaptoethanol, and bromophenol blue) and boiled at 99 °C for 10 min. Total protein extracts were kept at −80 °C until use.
Protein extracts were analyzed with a 7.5 or 10% polyacrylamide SDS-PAGE and transferred to a polyvinylidene difluoride membrane (PVDF, Thermo Fisher Scientific, Waltham, MA, USA). The membranes were blocked at RT for 1 h with TBST buffer (10 mM Tris-HCl pH 7.5, 100 mM NaCl, 0.1% Tween20) containing 4% Milk (Formulat). Then, they were incubated on a shaker, overnight (ON) at 4 °C, with 5% BSA solution containing primary antibodies against p-Tyr705-STAT3 (#9145, 1:1000), pRb (#8516, 1:2000), pERK (#4370, 1:1000), pAkt (#4060, 1:2000), pSer15-P53 (#9286, 1:2000) (Cell Signaling Technology, Danvers, […], USA), Akt (GTX121937, 1:3000), ERK (GTX134452, 1:6000), Cyclin A2 (GTX-103042, 1:3000), p-Thr160Cdk2 (GTX-133862, 1:3000), p21 (GTX-629543, 1:3000) (Genetex, Alton Pkwj Irvine, CA, USA), p53 (Sc-263, 1:1000), STAT3 (Sc-482, 1:1000), and p-Ser727-STAT3 (Sc-136193, 1:1000) (Santa Cruz Biotechnology, Dallas, TX, USA). The membranes were washed three times with TBST buffer for 30 min and then incubated for 1 h with a horseradish-peroxidase-conjugated secondary antibody (anti-rabbit 1:6000, Genetex), (anti-mouse, 1:4000, Cell Signaling Technology, Danvers, […], USA). They were washed another three times for 30 min with TBST buffer. All protein extracts were normalized with a β-actin protein antibody (GTX-124214, 1:10,000; Genetex, Alton Pkwj Irvine, CA, USA). Immuno-detection was carried out with an ECL kit (GE-Healthcare, Little Chalfont, UK), and the chemiluminescence signals were detected with ChemiDoc (Bio-Rad, Hercules, CA, USA).

MMP2 gelatinase activity = test: Gelatin zymography of MMP2 activity in A375 cells; conditions: A375, 10 and 20 µM, gel zymography
Procedure: A gel zymography assay can measure the ability of matrix metalloproteinases (MMPs) to digest their substrate gelatin present in the gel. Thus, the zymographic approach allows sensitive and quantifiable analysis of the activity of MMPs that can be recognized by their molecular weight. […] Both compounds 7 and 4 at 10 and 20 µM inhibited MMP2 gelatinase activity in the A375 melanoma cell line (Figure 6B).
A375 cells were cultured in the presence of 10 or 20 µM cryptotanshinone (4), salviolone (7), or 1 µM onconase (provided by Prof. G. Gotte), as a positive control, for 48 h and then they were serum starved for 24 h. The conditioned medium was collected and 10× concentrated with an Amicon Ultra-2 Centrifugal filter unit (Merck-Millipore, Milan, Italy). Protein concentrations were determined with Coomassie (Thermo Fisher Scientific, Waltham, MA, USA) and samples treated with a non-reducing sample buffer. To separate proteins, a 7.5% SDS-PAGE was performed. The gel contained 4 mg/mL of gelatin (Sigma-Aldrich, Milan, Italy) and was washed with 50 mM Tris-HCl pH 7.5, 5 mM CaCl2, and 1 μM ZnCl2 supplemented with 2.5% Triton X-100 (Serva Electrophoresis, Heidelberg, Germany). […] The gel was stained with 0.5% Coomassie Brilliant Blue R-250 in 20% ethanol/10% acetic acid, and the gelatinase activity was detected by evaluating the presence and intensity of clear bands on the blue background.

A375 melanoma cell line = test: SRB cell viability assay in A375 cells; conditions: for inhibition of melanoma cell viability: A375, 20 µM; for inhibition of melanoma cell viability / EC50: 72 h; for viability reduction in melanoma cells / EC50: A375, SRB; for viability reduction in melanoma cells: 40–60 µM; for EC50: Homo sapiens, A-375, read-out: half maximal effective concentration (EC50) able to reduce cell viability
Procedure: In preliminary experiments, the evaluation of cell viability at different time after compound administration was carried out with sulforhodamine B (SRB) assay. Indeed, after 24-, 48-, and 72-h treatment, an evident time dependence in the inhibition of cell growth was registered (data not shown). Thus, to evaluate A375 and MeWo cell viability, we decided to perform further SRB experiments with each compound only after 72 h.
Human MeWo (HTB-65) and A375 (CRL-1619) melanoma cell lines as well as the normal human epidermal melanocyte (NHEM) (PCS-200-013) cell line (ATCC, Manassas, VA, USA) were cultured at 37 °C under 5% CO2 in a humidified atmosphere. Roswell Park Memorial Institute 1640 medium (RPMI, Gibco, Ref.21875, Thermo Scientific, Waltham, MA, USA) was used to culture MeWo cells, while Dulbecco’s Modified Eagle Medium (DMEM, Gibco, Ref. 61965, Thermo Scientific, Waltham, MA, USA) was used for A375 and NHEM cell lines. The culture media were supplemented with 10% fetal bovine serum (FBS, Gibco, Thermo Scientific, Waltham, MA, USA) plus 1% Antibiotic Antimycotic Solution (Gibco, Thermo Scientific). The MEK1 inhibitor U0126 (CAY-70970) and the PI3K inhibitor LY294002 (CAY-70920) were provided by Cayman Chemical, Ann Arbor, MI, USA.
Melanoma MeWo and A375 cells or NHEM were seeded in 96-well plates (5.0 × 10^3 cells/well for MeWo cells and 2.9 × 10^3 cells/well for A375 or NHEM). After 24-h culture, the cells were treated with different concentrations of compounds 1–7. After 72-h treatment, the cells were fixed by adding 25 µL/well of 50% (w/v) TCA directly into the culture medium. The plates were incubated at 4 °C for 1 h, washed four times with ddH2O, and dried at RT. Staining was performed by adding 50 µL/well of 0.04% (w/v) sulforhodamine B (SRB) sodium salt solution (Sigma-Aldrich, Milan, Italy). After 1-h incubation at RT, the plates were rinsed with 1% HAc and air-dried. SRB was solubilized in a 10 mM Tris-base solution pH 10.5 and Abs492 measured in the plate reader TECAN NanoQuant Infinite M200 Pro (Tecan Group Ltd., Männedorf, Switzerland). Six replicates for each condition/data point were performed.

pRb = test: Immunoblot of pRb in A375 cells; conditions: A375, 20 µM, 48 or 72 h
Procedure: as §1
(§2) Protein extracts were analyzed with a 7.5 or 10% polyacrylamide SDS-PAGE and transferred to a polyvinylidene difluoride membrane (PVDF, Thermo Fisher Scientific, Waltham, MA, USA). The membranes were blocked at RT for 1 h with TBST buffer (10 mM Tris-HCl pH 7.5, 100 mM NaCl, 0.1% Tween20) containing 4% Milk (Formulat). […] Immuno-detection was carried out with an ECL kit (GE-Healthcare, Little Chalfont, UK), and the chemiluminescence signals were detected with ChemiDoc (Bio-Rad, Hercules, CA, USA).

cyclin A2 = test: Immunoblot of cyclin A2 in A375 cells; conditions: A375, 20 µM, 48 or 72 h
Procedure: as §1, §2

C[C@H]1COC2=C1C(=O)C(=O)c1c2ccc2c1CCCC2(C)C [Compound 4, cryptotanshinone]
STAT3 activity (tyrosine and serine phosphorylation) [1]: did not significantly change | Tyr705-STAT3 phosphorylation [1]: significant reduction | MMP2 gelatinase activity (MMP2 gelatinase activity): inhibited | inhibition of melanoma cell viability (A375 melanoma cell line): about 50% | viability reduction in melanoma cells (A375 melanoma cell line): 70–80% | EC50 (A375 melanoma cell line): ~14 µM | phosphorylation of Rb (pRb) expression level (pRb): slightly reduced | cyclin A2 expression level (cyclin A2): slightly reduced

Cc1cc2ccc3c(c2cc(O)c1=O)CCCC3(C)C [Compound 7, salviolone]
STAT3 activity (tyrosine and serine phosphorylation) [1]: did not significantly change | Tyr705-STAT3 phosphorylation [1]: significant reduction | MMP2 gelatinase activity (MMP2 gelatinase activity): inhibited | inhibition of melanoma cell viability (A375 melanoma cell line): about 50% | viability reduction in melanoma cells (A375 melanoma cell line): 70–80% | EC50 (A375 melanoma cell line): ~17 µM | phosphorylation of Rb (pRb) expression level (pRb): strongly reduced | cyclin A2 expression level (cyclin A2): strongly reduced
